By IC50 is commonly meant the concentration needed to halve the response being measured.

Results on 24 compounds are retold here after patent US5474986A, “Method for treating galabiose-binding bacteria infections” (priority 1988, dated 1995).

A value given as a limit tells only on which side of the number the result lay.

For this experiment, the system named is E. coli HB101/pPAP5 (agglutination of human erythrocytes). Briefly: Inhibition of haemagglutination (HA inhibition) of human erythrocytes by E. coli. It counts as cell-based. To be noted: for IC50: Escherichia coli, Erythrocyte; for Relative potency (%): in relation to compound 1, calculated from IC50; for ΔΔG^o: ΔΔG°=RTlnKrel, Krel = IC50 ratio to compound 1; for inhibitory power (in words): haemagglutination inhibition, compared with the methyl galabioside / unmodified galabioside. From the text: Bacterial strain HB101/pPAPS. Plasmid pPAP5 carries the pap gene cluster isolated from the uropathogenic E.coli isolate J96. The clone produces P pill that mediate agglutination of human erythrocytes by binding to the galabiose-containing P-blood group antigens present on the erythrocyte surface. The galabiose binding property resides in the PapG gene product which is present at the tip of the P pilus as a minor component.
HA of a 1% human P erythrocyte suspension in phosphate-buffered saline was determined for agar-grown organisms by suspending the bacteria to a Klett of 490 (ca 1×10^9 bacteria/mL). A sample of the bacterial suspension (25 μL) was serially diluted in microtiter plates containing 25 μL PBS in each well. An equal volume of erythrocyte suspension was added and after mixing, the plates were incubated at 4° C. for 18 h. The HA endpoint was defined as the dilution in the last well before erythrocyte buttons were formed. The titer was expressed as the reciprocal of the endpoint dilution.
The HA titer of the strains to be tested was determined as described above and the cells were diluted so that each strain gave a titer of 64. The concentration of each of the analogues 1-25 was adjusted to 100 mM and 25 μL of each analogue was serially diluted in microtiter plates containing 25 μL of PBS in each well. The bacterial suspension (25 μL; HA titer=64) was then added to each well. After incubation for 30 min at room temperature, human erythrocytes (1% suspension) were added by gentle mixing and the plates were incubated at 4° C. overnight. The endpoint was defined as the greatest dilution of the analogue (minimal concentration) that gave a 50% inhibition of the HA (IC50).
The IC50 -values given in the tables are mean values from 3 consecutive runs. The ratio of the IC50 -value for an inhibitor and compound 1 is the relative equilibrium constant, Krel. This value was used for the calculation of the difference free energy values (ΔΔG°) using the expression ΔΔG°=RTlnKrel. It should be stressed that the conclusions made here about the nature of the adhesin receptor is based on the assumption that all the inhibitors have similar over-all confirmations oriented in a similar way in the receptor side and that only one type of galablest-specific receptor is present in the adhesin.

Where [1] appears, read: Table 1, inhibition of agglutination of human erythrocytes by E. coli, mean of 3 consecutive runs.
The mark [2] stands for this setting: Table 2, glycoside analogs, inhibition of agglutination of human erythrocytes by E. coli, mean of 3 runs.
The mark [3] stands for this setting: Table 2, in relation to compound 1 (IC50 0.20 mM).
[4] abbreviates: Table 2, relative to compound 1 (IC50 0.20 mM).
Setting [5] is: Table 2, footnote a: separate experiment, relative to compound 1 IC50 = 0.0434 mM.

In turn, `CO[C@@H]1O[C@H](CO)[C@H](O[C@H]2O[C@H](CO)C[C@H](O)[C@H]2O)[C@H](O)[C@H]1O` [Compound 7] showed an IC50 under setting [1] of 10 mM. For the setting “Table 1”, the “Relative potency (%)” value is 1.9% and the “ΔΔG^o” value came out at 2.2 kcal/mol.
Turning to `CO[C@@H]1O[C@H](CO)[C@H](O[C@H]2O[C@H](CO)[C@H](O)[C@H](OC)[C@H]2O)[C@H](O)[C@H]1O` [Compound 11, Methyl 4-O-(3-O-methyl-α-D-galactopyranosyl)-β-D-galactopyranoside], the “inhibitory power (in words)” value is given as “marked increase in the inhibitory power”. Also, the IC50 under setting [1] stood at 0.087 mM. In addition, for the setting “Table 1”, the “Relative potency (%)” value is on record as 220% and the “ΔΔG^o” value was -0.43 kcal/mol.
`COC[C@H]1O[C@@H](OC)[C@H](O)[C@@H](O)[C@H]1O[C@H]1O[C@H](CO)[C@H](O)[C@H](O)[C@H]1O` [Compound 10] showed an IC50 under setting [1] greater than 25 mM. For the setting “Table 1”, the “Relative potency (%)” value was less than 1% and the “ΔΔG^o” value is greater than 2.63 kcal/mol.
As for `CC(C)CO[C@@H]1O[C@H](CO)[C@H](O[C@H]2O[C@H](CO)[C@H](O)[C@H](O)[C@H]2O)[C@H](O)[C@H]1O` [Compound 19], under setting [2], the IC50 was 0.087 mM. Under setting [3], the “Inhib. power (%)” value turned out to be 220%. Moreover, the “ΔΔG (kJmol^-1)” value under setting [4] was -1.8 kJmol^-1.
In turn, `CO[C@H]1C[C@@H](O)[C@@H](O[C@H]2O[C@H](CO)[C@H](O)[C@H](O)[C@H]2O)[C@@H](CO)O1` [Compound 2] had an IC50 under setting [1] of 0.35 mM. Also, for the setting “Table 1”, the “Relative potency (%)” value was 56% and the “ΔΔG^o” value turned out to be 0.335 kcal/mol.
For the compound `C[Si](C)(C)CCO[C@@H]1O[C@H](CO)[C@@H](O[C@@H]2O[C@H](CO)[C@H](O[C@H]3O[C@H](CO)[C@H](O)[C@H](O)[C@H]3O)[C@H](O)[C@H]2O)[C@H](O)[C@H]1O` [Compound 22], it took 0.26 mM to reach half-maximal inhibition under setting [2] (IC50). Also, under setting [3], the “Inhib. power (%)” value was 75%. Further, the “ΔΔG (kJmol^-1)” value under setting [4] amounted to 0.7 kJmol^-1.
As for `OCC(O)CO[C@@H]1O[C@H](CO)[C@H](O[C@H]2O[C@H](CO)[C@H](O)[C@H](O)[C@H]2O)[C@H](O)[C@H]1O` (some centres unmarked) [Compound 21], under setting [2], the IC50 came to 0.13 mM. The “Inhib. power (%)” value under setting [3] is on record as 150%. Besides, the “ΔΔG (kJmol^-1)” value under setting [4] is given as -0.9 kJmol^-1.
For `CO[C@@H]1O[C@H](CO)[C@H](O[C@H]2O[C@H](CO)[C@H](O)[C@H](O)[C@H]2O)[C@H](OC)[C@H]1O` [Compound 9], under setting [1], the IC50 came out at 1.6 mM. Also, where the note is “Table 1”, the “Relative potency (%)” value is 12% and the “ΔΔG^o” value turned out to be 1.17 kcal/mol.
`CO[C@@H]1O[C@H](CO)[C@H](O[C@H]2O[C@H](C)[C@H](O)[C@H](O)[C@H]2O)[C@H](O)[C@H]1O` [Compound 8]: the IC50 under setting [1] was 3.7 mM. Besides, for the setting “Table 1”, the “Relative potency (%)” value was 5.3% and the “ΔΔG^o” value is 1.63 kcal/mol.
`CCS[C@@H]1O[C@H](CO)[C@H](O[C@H]2O[C@H](CO)[C@H](O)[C@H](O)[C@H]2O)[C@H](O)[C@H]1O` [Compound 28, Ethyl 1-thio-4-O-(α-D-galactopyranosyl)-β-D-galactopyranoside]: the IC50 (Table 2, footnote a: separate inhibition experiment where reference compound 1 showed IC50 = 0.0434 mM) stood at 0.0163 mM. For the same compound, under setting [5], the “Inhib. power (%)” value was found to be 266% and the “ΔΔG (kJmol^-1)” value is given as -2.3 kJmol^-1.
As to `CCO[C@@H]1O[C@H](CO)[C@H](O[C@H]2O[C@H](CO)[C@H](O)[C@H](O)[C@H]2O)[C@H](O)[C@H]1O` [Compound 18], the IC50 under setting [2] turned out to be 0.13 mM. For the same compound, under setting [3], the “Inhib. power (%)” value amounted to 150%. Also, under setting [4], the “ΔΔG (kJmol^-1)” value is listed as -0.9 kJmol^-1.
In turn, `OC[C@H]1O[C@H](O[C@@H]2[C@H](O)[C@@H](O)C(O)O[C@@H]2CO)[C@H](O)[C@@H](O)[C@H]1O` (some centres unmarked) [Compound 24] had an IC50 under setting [2] of 1.4 mM. The “Inhib. power (%)” value under setting [3] turned out to be 14%. Also, under setting [4], the “ΔΔG (kJmol^-1)” value is 4.6 kJmol^-1.
Taken in the same sequence, the figures for `CCO[C@@H]1O[C@H](CO)[C@@H](O[C@@H]2O[C@H](CO)[C@H](O)[C@H](O)[C@H]2O)[C@H](O)[C@H]1O` [Compound 26, Galβ1-4GlcβOCH2 CH3, reference compound] were greater than 25 mM, less than 1.0% and greater than 11 kJmol^-1.
`C[Si](C)(C)CCO[C@@H]1O[C@H](CO)[C@H](O[C@H]2O[C@H](CO)[C@H](O)[C@H](O)[C@H]2O)[C@H](O)[C@H]1O` [Compound 20] returned an IC50 under setting [2] of 0.049 mM. The “Inhib. power (%)” value under setting [3] is given as 400%. The “ΔΔG (kJmol^-1)” value under setting [4] is recorded as -3.2 kJmol^-1.
For `CC[C@@H]1[C@@H](O)[C@H](OC)O[C@H](CO)[C@@H]1O[C@H]1O[C@H](CO)[C@H](O)[C@H](O)[C@H]1O` [Compound 16], under setting [1], the IC50 worked out at 3.8 mM. For the same compound, under “Table 1”, the “Relative potency (%)” value is 5.1% and the “ΔΔG^o” value was 1.65 kcal/mol.
`CO[C@@H]1O[C@H](CF)[C@H](O[C@H]2O[C@H](CO)[C@H](O)[C@H](O)[C@H]2O)[C@H](O)[C@H]1O` [Compound 12] gave a 50% inhibitory concentration (IC50) under setting [1] of 9.3 mM. Besides, under “Table 1”, the “Relative potency (%)” value is listed as 2.1% and the “ΔΔG^o” value was found to be 2.15 kcal/mol.
On to `CO[C@@H]1O[C@H](CO)[C@H](O[C@H]2O[C@H](CO)[C@H](F)[C@H](O)[C@H]2O)[C@H](O)[C@H]1O` [Compound 13], for which half-maximal inhibition under setting [1] (IC50) was put at 3.5 mM. Also, for the setting “Table 1”, the “Relative potency (%)” value is 5.6% and the “ΔΔG^o” value was 1.6 kcal/mol.
The compound `CO[C@@H]1O[C@H](CO)[C@H](O[C@H]2O[C@H](CF)[C@H](O)[C@H](O)[C@H]2O)[C@H](O)[C@H]1O` [Compound 14] showed an IC50 under setting [1] of 0.35 mM. For the same compound, where the note is “Table 1”, the “Relative potency (%)” value was 56% and the “ΔΔG^o” value was 0.323 kcal/mol.
The corresponding values for `CO[C@@H]1O[C@H](CO)[C@H](O[C@H]2O[C@H](CO)[C@H](O)[C@H](O)[C@H]2O)C[C@H]1O` [Compound 3] are 1 mM, 19% and 0.932 kcal/mol.
Compound `CO[C@@H]1O[C@H](CO)[C@H](O[C@H]2O[C@H](CO)[C@H](O)C[C@H]2O)[C@H](O)[C@H]1O` [Compound 6] came in with an IC50 under setting [1] of 6.5 mM. Further, for the setting “Table 1”, the “Relative potency (%)” value is reported as 3.0% and the “ΔΔG^o” value stood at 1.96 kcal/mol.
`CO[C@@H]1O[C@H](C)[C@H](O[C@H]2O[C@H](CO)[C@H](O)[C@H](O)[C@H]2O)[C@H](O)[C@H]1O` [Compound 4] had an IC50 under setting [1] of 4.2 mM. For the same compound, under “Table 1”, the “Relative potency (%)” value was 4.7% and the “ΔΔG^o” value is 1.7 kcal/mol.
In the case of `OC[C@H]1O[C@H](O[C@@H]2[C@H](O)[C@@H](O)[C@H](OCCSCCCCCCCCCSCCO[C@@H]3O[C@H](CO)[C@H](O[C@H]4O[C@H](CO)[C@H](O)[C@H](O)[C@H]4O)[C@H](O)[C@H]3O)O[C@@H]2CO)[C@H](O)[C@@H](O)[C@H]1O` [Compound 25], the “inhibitory power (in words)” value is recorded as “very high inhibitory power”. In addition, the IC50 under setting [2] amounted to 0.0068 mM. Further, the “Inhib. power (%)” value under setting [3] turned out to be 2900%. Also, under setting [4], the “ΔΔG (kJmol^-1)” value was -7.8 kJmol^-1.
Under setting [1], `CO[C@@H]1O[C@H](CO)[C@H](O[C@H]2O[C@H](CO)[C@@H](O)[C@H](O)[C@H]2O)[C@H](O)[C@H]1O` [Compound 17] came in with a half-inhibitory concentration (IC50) of 5.1 mM. Under “Table 1”, the “Relative potency (%)” value was 3.8% and the “ΔΔG^o” value amounted to 1.82 kcal/mol.
In turn, `CO[C@@H]1O[C@H](CO)[C@H](O[C@H]2O[C@H](CO)[C@H](O)[C@H](O)[C@H]2O)[C@H](C)[C@H]1O` [Compound 15] returned an IC50 under setting [1] of 0.39 mM. For the same compound, for the setting “Table 1”, the “Relative potency (%)” value is 50% and the “ΔΔG^o” value came out at 0.382 kcal/mol.
